Tests used:
AAG = biological target: T1, AAG; assay: TRANSIL binding assay, AAG; design: species or system human
T1 construct: other: TRANSIL, PBS pH 7.4, 2 μM drug; other: not for other serum proteins such as albumin; fused on or other part: AGP immobilised on TRANSIL silica beads (ready-to-use kit)
Procedure: (§1) TRANSIL® Binding Methodology (www.admecell.com)—Assay Buffers: phosphate buffered saline (“PBS”), pH 7.4 (Gibco 10010) and dimethylsulfoxide (“DMSO”). Plates: Ordered from ADMEcell (Alameda, Calif.). AGP—Full Plate: TBP-0211-0096; AGP—Strip Plate: TBP-0211-1196; HSA—Full Plate: TBP-0210-0096; HSA—Strip Plate: TBP-0210-1196. Stop Solution: 100% Acetonitrile spiked with Internal Standard (0.4 μM final concentration).
(§2) Drug Dilution: Dilution of drug samples to make a final 2 μM drug concentration (1% DMSO) (used 360 μL of final diluted drug per protein testing, i.e., 720 μL to run both AAG and HSA). Brought drug up to a 10 mM stock solution in DMSO. Diluted 10 mM stock to a 200 μM (0.2 mM) stock solution (added 4 μL of 10 mM stock solution into 196 μL, of DMSO). Diluted 200 μM stock to a 20 μM stock solution (added 100 μL of 200 μM DMSO stock solution into 900 μL of PBS Buffer, pH 7.4).
(§3) Thawed the assay kit either at room temperature (approximately 3 hours) or in the refrigerator at 4° C. overnight. The plates were put in the incubator, CO2 (5%) for 30 minutes prior to addition of compound. A pre-dilution of the compounds (10-fold assay concentration) were prepared, see Drug Dilution step above. […] Test article solution (45 μL) was added to the tubes/well of the ready-to-use kit and incubated for 2 minutes. […] The concentration of the supernatant was quantified with LC/MS (API4000). […]

KSP = biological target: T2, KSP (Homo sapiens, UniProt P52732); assay: Estimated in vitro unbound IC50
T2 sequence (P52732 1-1056): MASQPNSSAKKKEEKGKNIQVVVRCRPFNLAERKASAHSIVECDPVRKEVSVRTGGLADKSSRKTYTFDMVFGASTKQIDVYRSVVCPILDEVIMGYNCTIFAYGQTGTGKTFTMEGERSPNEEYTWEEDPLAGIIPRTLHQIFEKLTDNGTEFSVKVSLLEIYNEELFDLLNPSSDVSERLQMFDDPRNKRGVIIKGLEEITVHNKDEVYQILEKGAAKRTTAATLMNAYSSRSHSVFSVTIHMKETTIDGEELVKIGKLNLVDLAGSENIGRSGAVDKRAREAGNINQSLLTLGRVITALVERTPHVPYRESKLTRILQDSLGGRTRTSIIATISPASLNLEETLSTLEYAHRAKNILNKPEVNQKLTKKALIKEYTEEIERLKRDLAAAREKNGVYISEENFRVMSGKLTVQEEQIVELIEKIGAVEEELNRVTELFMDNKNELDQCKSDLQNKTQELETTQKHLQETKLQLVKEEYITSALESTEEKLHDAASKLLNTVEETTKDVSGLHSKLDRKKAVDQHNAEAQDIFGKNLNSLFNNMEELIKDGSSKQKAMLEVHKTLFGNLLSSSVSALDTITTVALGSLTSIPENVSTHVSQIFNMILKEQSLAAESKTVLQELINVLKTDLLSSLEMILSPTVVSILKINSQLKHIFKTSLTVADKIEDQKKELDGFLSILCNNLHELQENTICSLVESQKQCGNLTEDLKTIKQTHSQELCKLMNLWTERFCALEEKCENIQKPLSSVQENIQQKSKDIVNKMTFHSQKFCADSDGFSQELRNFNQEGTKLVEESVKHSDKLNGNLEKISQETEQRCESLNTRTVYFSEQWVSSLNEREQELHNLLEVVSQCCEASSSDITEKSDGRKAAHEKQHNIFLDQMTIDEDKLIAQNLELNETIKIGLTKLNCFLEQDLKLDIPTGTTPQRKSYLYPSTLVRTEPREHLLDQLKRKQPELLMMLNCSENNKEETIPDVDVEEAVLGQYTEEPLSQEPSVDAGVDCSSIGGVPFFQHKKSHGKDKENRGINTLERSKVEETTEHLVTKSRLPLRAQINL
Procedure: Model optimization was accomplished using the QRPEM engine of Phoenix 6.3 (Pharsight Corporation, St. Louis, Mo.). Model selection was based on AIC comparisons and diagnostic plots. Simulations were for a typical patient receiving Phase 2 dose of 1.5 mg/m^2 on day 1 and day 2 with varying [AAG].

[1] = system: Patients with Relapsed or Refractory Multiple Myeloma; assay: Clinical study in patients with relapsed or refractory multiple myeloma, analysed by baseline [AAG]; format: in vivo, human
Procedure: The R&D Systems, Inc. (Minneapolis, Minn.) Quantikine® Human α1-Acid Glycoprotein Immunoassay (Catalog No. DAGPOO) is a 4.5 hour solid-phase ELISA designed to measure human AAG in cell culture supemates, serum, plasma, and urine. This assay employed the quantitative sandwich enzyme immunoassay technique. […] Standards and samples are pipetted into the wells, and any AAG present is bound by the immobilized antibody. After washing away any unbound substances, an enzyme-linked polyclonal antibody specific for AAG is added to the wells. Following a wash to remove any unbound antibody-enzyme reagent, a substrate solution is added to the wells, and color develops in proportion to the amount of AAG bound in the initial step. The color development is stopped, and the intensity of the color is measured. The assay was performed as described in the package insert, except where described otherwise below.

RPMI-8226 MM cells = assay: Cell Titer Blue viability assay with added AAG, RPMI 8226; format: cell-based, human
From the text: (§4) Kit: Cell Titer-Blue Cell Viability Assay, Promega Corp. (Madison Wis.) Catalog No. G8081

Dose limiting toxicity = conditions: in vivo
From the text: As such, prophylactic granulocyte colony-stimulating factory (“G-CSF”) may be administered.

% Fu to human plasma = format: in vitro ADME; conditions: human plasma (ready-to-use bead-based binding assay kit)
Procedure: Thawed the assay kit either at room temperature (approximately 3 hours) or in the refrigerator at 4° C. overnight. The plates were put in the incubator, CO2 (5%) for 30 minutes prior to addition of compound. A pre-dilution of the compounds (10-fold assay concentration) were prepared, see Drug Dilution step above. The drug dilutions were warmed in a 37° C. water bath prior to dosing compound into plate. Caution: Check carefully the pre-dilution for any precipitation and ensure a sufficient buffer solubility and stability of your test article. Test article solution (45 μL) was added to the tubes/well of the ready-to-use kit and incubated for 2 minutes. Mixed ten times by re-suspending the beads. Re-suspended approximately half of the total volume of the vial (total volume is 450 μL). […] The vials were spun with a swing-out centrifuge for 10 minutes at 750 g. 100 μL was carefully transferred to 96-well plate. Acetonitrile (50 μL) was added with labetalol as the internal standard (0.4 μM final concentration). The plates were sealed for analysis. The concentration of the supernatant was quantified with LC/MS (API4000). See also, Brown, Karin D. supra. The result is in Table 1. pKa value was estimated using ACD/pKa DB software. Calculations: [formula]

HSA = biological target: T3, HSA (Homo sapiens, UniProt P02768); assay: TRANSIL binding assay, HSA; conditions: PBS pH 7.4, 2 μM drug
T3 construct: purchased ADMEcell (Alameda, Calif.) TBP-0210-0096 / TBP-0210-1196
T3 sequence (P02768 25-609): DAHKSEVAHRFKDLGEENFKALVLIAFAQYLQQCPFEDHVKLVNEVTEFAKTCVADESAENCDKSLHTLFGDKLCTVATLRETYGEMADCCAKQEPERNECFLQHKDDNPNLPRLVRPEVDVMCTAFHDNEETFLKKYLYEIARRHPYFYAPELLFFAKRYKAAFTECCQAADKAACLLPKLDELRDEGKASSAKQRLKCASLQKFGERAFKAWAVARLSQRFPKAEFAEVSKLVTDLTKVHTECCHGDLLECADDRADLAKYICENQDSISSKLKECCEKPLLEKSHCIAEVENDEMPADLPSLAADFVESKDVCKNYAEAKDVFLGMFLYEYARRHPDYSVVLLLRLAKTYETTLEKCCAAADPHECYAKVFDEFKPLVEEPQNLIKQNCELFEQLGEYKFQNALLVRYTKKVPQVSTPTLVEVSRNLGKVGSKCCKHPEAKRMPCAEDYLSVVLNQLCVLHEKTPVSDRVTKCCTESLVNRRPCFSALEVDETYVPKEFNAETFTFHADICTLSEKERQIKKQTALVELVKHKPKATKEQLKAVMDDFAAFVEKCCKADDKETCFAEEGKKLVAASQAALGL
Procedure: as §1, §2, §3

NCI H929 MM cells = assay: 3 day Cell Titer Blue viability assay with added AAG, NCI H929; format: cell-based, human
From the text: as §4

[2] = Phase 2 + dex (with dexamethasone), All Patients, n=18
[3] = Phase 2 + dex (with dexamethasone), [AAG] <1.1 g/L, n=12
[4] = Phase 2 Single Agent, All Patients, n=27
[5] = Phase 2 Single Agent, [AAG] <1.1 g/L, n=21

Kd (AAG; TRANSIL, PBS pH 7.4, 2 μM drug): 5 µM
affinity for AAG in in vitro assays (AAG; not for other serum proteins such as albumin): low micromolar affinity
IC50 (KSP): 0.000438 µM
fraction unbound at 2 min (% Fu to human plasma): 0.07
Kd (HSA): 147 µM
Compound: CON(C)C(=O)N1N=C(c2cc(F)ccc2F)S[C@@]1(CCCN)c1ccccc1.Cl [ARRY-520, (S)-2-(3-Aminopropyl)-5-(2,5-difluorophenyl)-N-methoxy-N-methyl-2-phenyl-1,3,4-thiadiazole-3(2H)-carboxamide]
Median Time on Study (months) ([1]; Phase 1, All Patients, n=27): 3.9 months
≧MR, number of patients ([1]; Phase 1, All Patients, n=27): 4
≧MR, rate ([1]; Phase 1, All Patients, n=27): 15%
≧PR, number of patients ([1]; Phase 1, All Patients, n=27): 3
≧PR, rate ([1]; Phase 1, All Patients, n=27): 11%
Median Time on Study (months) ([1]; Phase 1, [AAG] <1.1 g/L, n=20): 5.2 months
≧MR, number of patients ([1]; Phase 1, [AAG] <1.1 g/L, n=20): 4
≧MR, rate ([1]; Phase 1, [AAG] <1.1 g/L, n=20): 20%
≧PR, number of patients ([1]; Phase 1, [AAG] <1.1 g/L, n=20): 3
≧PR, rate ([1]; Phase 1, [AAG] <1.1 g/L, n=20): 15%
Median Time on Study (months) [1, 2]: 3.9 months
≧MR, number of patients [1, 2]: 6
≧MR, rate [1, 2]: 33%
≧PR, number of patients [1, 2]: 4
≧PR, rate [1, 2]: 22%
Median Time on Study (months) [1, 3]: 6.2 months
≧MR, number of patients [1, 3]: 6
≧MR, rate [1, 3]: 50%
≧PR, number of patients [1, 3]: 4
≧PR, rate [1, 3]: 33%
Median Time on Study (months) [1, 4]: 2.8 months
≧MR, number of patients [1, 4]: 6
≧MR, rate [1, 4]: 22%
≧PR, number of patients [1, 4]: 5
≧PR, rate [1, 4]: 19%
Median Time on Study (months) [1, 5]: 3.4 months
≧MR, number of patients [1, 5]: 6
≧MR, rate [1, 5]: 29%
≧PR, number of patients [1, 5]: 5
≧PR, rate [1, 5]: 24%
time to coming off study, most patients with high baseline [AAG] ([1]; baseline [AAG] greater than 1.1 g/L, FIG. 5): less than 5 months
increase of risk for discontinuing the study ([1]; with each 1.0 g/L increase in [AAG], p<0.01): 2.5 fold
effect of increasing AAG levels on cell sensitivity (RPMI-8226 MM cells): decrease cell sensitivity
major dose limiting toxicity (DLT) (Dose limiting toxicity): neutropenia
decrease of cellular sensitivity to ARRY-520 as [AAG] increases (NCI H929 MM cells; AAG 0.5-4 mg/mL final concentration, FIG. 1): greater than 30 fold
effect of increasing AAG levels on cell sensitivity (NCI H929 MM cells; NCI H929): decrease cell sensitivity

Reference: patent US20150231117A1 (Array BioPharma Inc., priority 2012, published 2015)
